Tests used:
naïve T helper cells = assay: Th1 cell differentiation: IFN-γ secretion after second and third TCR stimulation following washout; assay type: cell-based, human
Method: The effectiveness of compounds of the present invention at reducing Th1 differentiation was examined as follows. Th1 differentiation was induced by culturing anti-CD3 stimulated T cells in the presence of exogenous IL-12. Human cord blood naive T helper cells (AllCells LLC, Emeryville, Calif.) were stimulated (i.e., T cell receptor (TCR) stimulation) by seeding into 96-well culture dishes coated with 5 μg/ml anti-CD3 antibody (clone UCHT1, R&D Systems, Minneapolis, Minn.), and 5 μg/ml anti-CD28 antibody (clone ANC28.1/D10, Ancell Corporation, Bayport, Minn.), and cultured at 37° C., 5% CO2 in RPMI-1640 (Mediatech Inc., Hemdon, Va.) containing 1% FBS, 1 U/ml penicillin-1 μg/ml streptomycin (Invitrogen Corporation, Carlsbad, Calif.), and 50 U/ml IL-2 (Roche Diagnostics Corporation, Indianapolis, Ind.). At time of seeding, cells were cultured with media alone or with media containing 2 ng/ml IL-12 and 10 μg/ml anti-IL-4 to induce Th1 cell differentiation. […]
The cells were then collected, washed twice with RPMI-1640 media containing 1% FBS, and counted before equal numbers of cells per well were re-stimulated (second T cell receptor (TCR) stimulation following washout of all prior treatments) by re-seeding the cells into 96-well culture dishes coated with 5 μg/ml anti-CD3 antibody and 5 μg/ml anti-CD28 antibody. […] After 24 hours the conditioned media from the cells was collected and analyzed for IFN-γ levels using a MS2400 Tissue Culture Kit (MesoScale Technologies, Gaithersburg, Md.) according to the manufacturer's instructions.
Thirteen days after the second TCR stimulation described above, the cells were collected, washed twice with RPMI-1640 media containing 1% FBS, and counted before equal numbers of cells per well were stimulated a third time (third TCR stimulation) by re-seeding into 96-well culture dishes coated with 5 μg/ml anti-CD3 antibody and 5 μg/ml anti-CD28 antibody. […]
In another series of experiments, the effectiveness of compounds of the present invention at reducing Th1 differentiation was determined. […]

naïve CD4+T Cells = assay: T helper cell synthesis of pro-inflammatory (IFN-γ) and anti-inflammatory (IL-5) cytokines; assay type: cell-based, human; details: seven days
Method: To examine the effect of compounds and methods of the present invention on T helper cell synthesis of pro-inflammatory and anti-inflammatory cytokines, the following studies were performed. Human cord blood naive CD4+T Cells (AllCells LLC, Emeryville, Calif.) were stimulated (i.e., T cell receptor (TCR) stimulation) by seeding into 96-well culture dishes coated with 5 μg/ml anti-CD3 antibody (clone UCHT1, R&D Systems, Minneapolis, Minn.), and 5 μg/ml anti-CD28 antibody (clone ANC28.1/D10, Ancell Corporation, Bayport, Minn.), and cultured at 37° C., 5% CO2 in RPMI-1640 (Mediatech Inc., Hemdon, Va.) containing 1% FBS, 1 U/ml penicillin-1 μg/ml streptomycin (Invitrogen Corporation, Carlsbad, Calif.), and 50 U/ml IL-2 (Roche Diagnostics Corporation, Indianapolis, Ind.). At time of seeding, cells were treated according to one of the following conditions: 1) media alone (Con); 2) 10 ng/ml IL4, 10 μg/ml anti-IFN-γ antibody, and 10 μg/ml anti-IL-12 antibody (R&D Systems, Minneapolis, Minn.); or 3) 2 ng/ml IL-12 and 10 μg/ml anti-IL-4 antibody. […] The cell-conditioned media was collected and analyzed for IFN-γ levels (a pro-inflammatory cytokine) and IL-5 levels (an anti-inflammatory cytokine) using MS2400 Human Tissue Culture Kits (MesoScale Technologies, Gaithersburg, Md.) according to the manufacturer's instructions.

Cc1nc(C(=O)NCC(=O)O)c(O)c2ccc(Oc3ccccc3)cc12 [Compound A, [(4-Hydroxy-1-methyl-7-phenoxy-isoquinoline-3-carbonyl)-amino]-acetic acid]
IFN-γ secretion following the second TCR stimulation (naïve T helper cells; compound present only during first TCR stimulation (seven days) with IL-12, 24 hours after re-stimulation): reduced IFN-γ secretion
IFN-γ secretion after a third TCR stimulation (naïve T helper cells; compound present only during first TCR stimulation with IL-12, thirteen days after the second stimulation, 24 hours): decreased IFN-γ secretion
IL-12-mediated increase in IFN-γ secretion (naïve CD4+T Cells; 2 ng/ml IL-12 and anti-IL-4 antibody): reduced the IL-12-mediated increase in IFN-γ secretion
IL-5 levels (naïve CD4+T Cells; 10 ng/ml IL4, anti-IFN-γ and anti-IL-12 antibody, vs IL-4 alone): increased IL-5 levels
